Measurements reported in ChEMBL document CHEMBL3217485, “Understanding and overcoming aminoglycoside resistance caused by N-6'-acetyltransferase” (Medchemcomm, 2012).
Converted amounts (≈) assume the structure as drawn.

Experiments:
Escherichia coli [1] = assay: Antibacterial activity against kanamycin-resistant Escherichia coli K-12 R5 expressing AAC(6') enzyme; assay type: functional
Pseudomonas aeruginosa = assay: Antibacterial activity against kanamycin-resistant Pseudomonas aeruginosa GN315 expressing AAC(6') enzyme; assay type: functional
[2] = Activity at AAC(6')-li (unknown origin)
Escherichia coli [3] = assay: Antibacterial activity against Escherichia coli ATCC 25922; assay type: functional
[4] = Binding affinity to biotinylated Escherichia coli 16S rRNA A-site
[5] = Ratio of Kcat to Km for AAC(6')-li (unknown origin)
[6] = Inhibition of AAC(6')-ly (unknown origin) in presence of ribostamycin
[7] = Inhibition of AAC(6')-ly (unknown origin) in presence of kanamycin A
[8] = Binding affinity to AAC(6')-lb (unknown origin)
[9] = Inhibition of AAC(6')-lb (unknown origin)

In the case of `NC[C@@H]1CC[C@@H](N)[C@@H](O[C@H]2[C@H](O)[C@@H](O[C@H]3O[C@H](CO)[C@@H](O)[C@H](N)[C@H]3O)[C@H](N)C[C@@H]2N)O1` [DIBEKACIN], the MIC (Escherichia coli [1]) is reported as 25 µg/mL (≈ 55.4 µM) and the MIC (Pseudomonas aeruginosa) is reported as > 100 µg/mL.

In the case of `CCNC[C@H]1O[C@H](O[C@H]2[C@H](O)[C@@H](O[C@@H]3O[C@@H](CO)[C@H](O)[C@@H](N)[C@@H]3O)[C@H](NC(=O)[C@@H](O)CCN)C[C@@H]2N)[C@H](O)[C@@H](O)[C@@H]1O`, the MIC (Escherichia coli [1]) is reported as 1.56 µg/mL (≈ 2.54 µM) and the MIC (Pseudomonas aeruginosa) is reported as 100 µg/mL (≈ 163 µM).

With `CN(CCCCN(C)C[C@@H](O)CO[C@@H]1[C@@H](O)[C@H](N)C[C@H](N)[C@H]1O[C@H]1O[C@H](CN)[C@@H](O)[C@H](O)[C@H]1N)C[C@@H](O)CO[C@@H]1[C@@H](O)[C@H](N)C[C@H](N)[C@H]1O[C@H]1O[C@H](CN)[C@@H](O)[C@H](O)[C@H]1N` the Km [2] was 28.7 µM, the kcat [2] was 0.26 s⁻¹ and the MIC (Escherichia coli [3]) was 6.25 µM (≈ 5.46 µg/mL). For the same molecule, the Kd [4] was 0.04 µM and the kcat/Km [5] was 0.93 ×10⁴ /M/s.

Work on `NC[C@H]1O[C@H](O[C@H]2[C@H](OCC(=O)NCCCCCNC(=O)CO[C@@H]3[C@@H](O)[C@H](N)C[C@H](N)[C@H]3O[C@H]3O[C@H](CN)[C@@H](O)[C@H](O)[C@H]3N)[C@@H](O)[C@H](N)C[C@@H]2N)[C@H](N)[C@@H](O)[C@@H]1O` yielded a Km [2] of 83.6 µM, a kcat [2] of 1.89 s⁻¹ and an MIC (Escherichia coli [3]) of 125 µM (≈ 103 µg/mL). The Kd [4] was 0.8 µM and the kcat/Km [5] was 2.26 ×10⁴ /M/s.

Work on `N=C(N)N[C@H]1[C@@H](O[C@H]2[C@H](O[C@@H]3O[C@H](CO)[C@@H](O)[C@H]3O)[C@@H](O)[C@H](NC(=N)N)C[C@@H]2NC(=N)N)O[C@H](CNC(=O)CCN)[C@@H](O)[C@@H]1O` yielded a Kii [6] of 92 µM, a Kis [6] of 17 µM and a Kii [7] of 23 µM. The Kis [7] was 31 µM.

In the case of `NC[C@H]1O[C@H](O[C@H]2[C@H](OCC(=O)NCCCNC(=O)CO[C@@H]3[C@@H](O)[C@H](N)C[C@H](N)[C@H]3O[C@H]3O[C@H](CN)[C@@H](O)[C@H](O)[C@H]3N)[C@@H](O)[C@H](N)C[C@@H]2N)[C@H](N)[C@@H](O)[C@@H]1O`, the Km [2] is reported as 53.4 µM, the kcat [2] is reported as 0.86 s⁻¹ and the MIC (Escherichia coli [3]) is reported as 31 µM (≈ 24.8 µg/mL). For the same molecule, the Kd [4] was 1.1 µM and the kcat/Km [5] was 1.6 ×10⁴ /M/s.

With `N[C@H]1C[C@H](Oc2ccccc2[N+](=O)[O-])[C@@H](N)C1` the Kd [8] was 23 µM.

`NC[C@H]1O[C@H](O[C@H]2[C@H](O)[C@@H](O)[C@H](N)C[C@@H]2N)[C@H](N)[C@@H](O)[C@@H]1O` [NEAMINE] gave a Km [2] of 5.82 µM, a kcat [2] of 0.419 s⁻¹ and an MIC (Escherichia coli [3]) of 50 µM (≈ 16.1 µg/mL). It also gave a Kd [4] of 10 µM and a kcat/Km [5] of 7.2 ×10⁴ /M/s.

For `CC(C)(COP(=O)(O)OP(=O)(O)OC[C@H]1O[C@@H](n2cnc3c(N)ncnc32)[C@H](O)[C@@H]1OP(=O)(O)O)[C@@H](O)C(=O)NCCC(=O)NCCSCC(=O)NCc1ccc(O[C@H]2C[C@H](N)C[C@@H]2N)cc1`, the Kd [8] was 0.95 µM and the Ki [9] was 0.5 µM.

With `Nc1cccc(C(=O)O[C@H]2C[C@H](N)C[C@@H]2N)c1` the Kd [8] was 57 µM.

Molecule `N[C@@H]1C[C@H](N)[C@@H](O)C1` has a Kd [8] of 41 µM.

In the case of `NC[C@@H]1O[C@@H](O[C@H]2[C@H](O)[C@@H](O[C@H]3O[C@H](CO)[C@@H](O)[C@H](N)[C@H]3O)[C@H](N)C[C@@H]2N)[C@@H](O)[C@H](O)[C@H]1O` [KANAMYCIN A], the MIC (Escherichia coli [1]) is reported as 25 µg/mL (≈ 51.6 µM) and the MIC (Pseudomonas aeruginosa) is reported as > 100 µg/mL.

In the case of `CNC[C@H]1O[C@H](O[C@H]2[C@H](O)[C@@H](O[C@@H]3O[C@@H](CO)[C@H](O)[C@@H](N)[C@@H]3O)[C@H](N)C[C@@H]2N)[C@H](O)[C@@H](O)[C@@H]1O`, the MIC (Escherichia coli [1]) is reported as 1.56 µg/mL (≈ 3.13 µM) and the MIC (Pseudomonas aeruginosa) is reported as > 100 µg/mL.

`CNC[C@@H]1CC[C@@H](N)[C@@H](O[C@H]2[C@H](O)[C@@H](O[C@@H]3O[C@@H](CO)[C@H](O)[C@@H](N)[C@@H]3O)[C@H](N)C[C@@H]2N)O1` showed an MIC (Escherichia coli [1]) of 1.56 µg/mL (≈ 3.35 µM) and an MIC (Pseudomonas aeruginosa) of 12.5 µg/mL (≈ 26.9 µM).

For `N#Cc1ccc(O[C@H]2C[C@H](N)C[C@@H]2N)cc1`, the Kd [8] was 20 µM.
